Experiment [1] relates to esophageal tumor SGA-73 cells. The experiment is described as follows: TA1 mouse model of human esophageal cancer (SGA-73 cells s.c.), tumor growth. The class given is in vivo, TA1 mice. Particulars: 31st day, after 30 days treatment; AY/NY 0.3 ml per day oral, CTX 30 mg/kg per day s.c. On the procedure:
(§1) The oral composition comprising 10^8 cells per ml of activated and conditioned yeast cells of the strain Saccharomyces cerevisiae Hansen strain AS2.375 was prepared by the methods described in Section 5.1 and subsections therein.
The mice injected with tumor cells were kept for 3 days and then divided into 4 experimental groups of ten mice per group and one control group. The four experimental groups were triplicated (i.e., using a total of 120 mice in the experimental groups).
The mice received the biological compositions, untreated yeast cells, CTX or saline on the same day as the tumor cells were transplanted. The mice in group CK2 also started receiving saline on the same day as the other four groups. The biological compositions, untreated yeast cells and saline were administered orally by a feeding tube and the CTX by subcutaneous injection for 30 consecutive days.

Experiment [2] relates to esophageal tumor SGA-73 cells. The experiment is described as follows: TA1 mouse model of human esophageal cancer (SGA-73 cells), survival over 6 months. Type of experiment: in vivo, TA1 mice. The settings on record: for Number of live animals remaining in the groups after 30 days of treatment: 30 mice per group. The procedure:
The survival time of mice after tumor injection and treatment was studied.
as §1
The animals were prepared in a similar manner as described in Section 8.1.
The mice injected with tumor cells were kept for 3 days and then divided into 4 experimental groups of ten mice per group and one control group. The four experimental groups were triplicated (i.e., using a total of 120 mice in the experimental groups). In group 2AY, the mice received 0.5 ml of the biological composition once per day. In group 2NY, the mice received 0.5 ml of the untreated yeast cells once per day. In group 2CTX, the mice were injected subcutaneously with 45 mg of cyclophosphamide (CTX) per kg body weight per day. In group 2CK1, the mice received 0.5 ml of physiological saline once per day.
The mice received the biological compositions, untreated yeast cells, CTX or saline on the same day as the tumor cells were transplanted. The mice in group 2CK2 also started receiving saline on the same day as the other four groups. The biological compositions, untreated yeast cells and saline were administered orally by a feeding tube and the CTX by subcutaneous injection for 30 consecutive days. The mice were observed over 6 months from the day of tumor inoculation and survival was recorded. The weight of the mice and the weight of the tumor were determined by standard techniques.

Experiment [3] concerns esophageal cancer. The experiment is described as follows: Wistar rat model of human esophageal cancer (MBNA-induced), tumor growth. Type of experiment: in vivo, Wistar rats. The settings on record: 31st day, after 30 days treatment; AY/NY 1.5 ml per day oral, VDS 3.0 mg/kg i.v. once a week. On the procedure: as §1
The four experimental groups were triplicated (i.e., using a total of 120 rats in the experimental groups).

In experiment [4] the test system is esophageal cancer. The experiment is described as follows: Wistar rat model of esophageal cancer, survival over 6 months. Type of experiment: in vivo, Wistar rats. Particulars: for Number of live animals remaining in the groups after 30 days of treatment: 30 rats per group. On the procedure: The following example illustrates the benefit of a biological composition of the invention in a Wistar rat model of original position engrafted human esophageal cancer. The survival time of rats after tumor injection and treatment was studied.
as §1
The animals were prepared in a similar manner as described in Section 6.1.
The rats that were fed with MBNA for 30 days were divided into 4 experimental groups of ten rats per group and one control group. The four experimental groups were triplicated (i.e., using a total of 120 rats in the experimental groups). In group 2AY, the rats received 1.5 ml of the biological composition in two doses per day. In group 2NY, the rats received 1.5 ml of the untreated yeast cells in two doses per day. […] In group 2CK1, the rats received 1.5 ml of physiological saline in two doses per day.
The rats received the biological compositions, untreated yeast cells, VDS or saline on the same day as the tumor cells were transplanted. The rats in group 2CK2 also started receiving saline on the same day as the other four groups. […] The rats were observed over 6 months from the day of tumor inoculation and survival was recorded. The weight of the rats, the weight of the esophagus, and the weight of the tumor were determined by standard techniques.

Where [5] appears, read: 0 month after cessation of treatment.
[6] abbreviates: 1 month after cessation of treatment.
Where [7] appears, read: 2 months after cessation of treatment.
Setting [8] is: 3 months after cessation of treatment.
[9] abbreviates: 4 months after cessation of treatment.
Where [10] appears, read: 5 months after cessation of treatment.
The mark [11] stands for this setting: 6 months after cessation of treatment.
The mark [12] stands for this setting: mice that survived the 6 month observation.
Where [13] appears, read: rats that survived the 6 month observation.

With `O=P1(N(CCCl)CCCl)NCCCO1` (stereo not shown) [CTX, cyclophosphamide], the “mean weight of mice and standard deviation” value is given as 18.2 ± 2.8 g in experiment [1] and “all animals dead” in experiment [2] (setting [12]). Also, the “mean weight of tumor nodules and standard deviation” value in experiment [1] was 384 ± 31 mg; in experiment [2] (setting [12]) it was “all animals dead”. In addition, the “Number of live animals remaining in the groups after 30 days of treatment” value (“Number of live animals remaining” for short) in experiment [2] (setting [5]) was found to be 30; in experiment [2] (setting [6]) it was 30; in experiment [2] (setting [7]) it was 28; in experiment [2] (setting [8]), 22; in experiment [2] (setting [9]), 18; in experiment [2] (setting [10]) it was 0. The “Number of live animals remaining” value in experiment [2] (setting [11]) was determined as 0. Also, the “survival time of mice” value in experiment [2] (2AY/2NY 0.5 ml per day oral, 2CTX 45 mg/kg per day s.c.) is reported as “all died after four months”.

With `CC[C@]1(O)C[C@@H]2CN(CCc3c([nH]c4ccccc34)[C@@](C(=O)OC)(c3cc4c(cc3OC)N(C)[C@H]3[C@@](O)(C(N)=O)[C@H](O)[C@]5(CC)C=CCN6CC[C@]43[C@@H]65)C2)C1` [VDS, vindesine], the “mean weight of rats and standard deviation” value is given as 173 ± 15 g with esophageal cancer [3] and “all animals dead” in the experiment with esophageal cancer [4] (setting [13]). Moreover, the “mean weight of tumor nodules and standard deviation” value in the experiment with esophageal cancer [3] is 281 ± 31 mg; in the experiment with esophageal cancer [4] (setting [13]), “all animals dead”. Also, the “Number of live animals remaining” value in the experiment on esophageal cancer [4] (setting [5]) is listed as 30; in the experiment with esophageal cancer [4] (setting [6]) it was 30; in the experiment with esophageal cancer [4] (setting [7]) it was 30; in the experiment on esophageal cancer [4] (setting [8]), 30; in the experiment with esophageal cancer [4] (setting [9]), 21; with esophageal cancer [4] (setting [10]), 3. Also, the “Number of live animals remaining” value in the experiment on esophageal cancer [4] (setting [11]) is reported as 0. Further, the “survival time of rats” value with esophageal cancer [4] (2AY/2NY 1.5 ml per day oral, 2VDS 3.0 mg/kg per week for four weeks) is reported as “all died after five months”. In addition, the “mean weight of esophagus and standard deviation” value in the experiment with esophageal cancer [4] (setting [13]) is “all animals dead”.

The record behind these values is US20040253266A1, “Biological compositions and methods for treatment of esophageal cancer” (priority 2003, published 2004).
